One series deals with mir-23b miRNA. Briefly: pGL3-mir-23b sensor luciferase assay in HeLa cells. Format: cell-based, human. Conditions: pGL3-mir-23b sensor-expressing HeLa cells.
Series [1] deals with pGL3-Control luciferase reporter. Briefly: pGL3-Control luciferase assay in HeLa cells (reporter without miRNA binding site). Format: cell-based, human. Particulars: for luciferase expression: 24 hours; for luciferase expression (% lucif. only control): pGL3-Control, 48 hours. The source says: In one embodiment, an expression system based on the pGL3-Control (Promega Corp., Madison Wis.) vector containing a CMV promoter controlling expression of a luciferase reporter sequence was used in transient transfections of HeLa cells with plasmids expressing miRNA or pri-miRNA mimics. To assess the ability of miRNA mimics to bind and regulate the expression of the luciferase reporter gene, two reporter plasmids were constructed: 1) a synthetic DNA fragment comprising two sites perfectly complementary to mir-143 were inserted into the pGL3-Control luciferase reporter vector, to create the pGL3-mir-143 sensor plasmid, and 2) a DNA fragment comprising the 3′-UTR of the LIM domain only 4 (LMO4) gene (predicted to be regulated by mir-143) was inserted into pGL3-Control to create pGL3-LMO4; this fragment was PCR-amplified using a primer beginning at position 1261 of the LMO4 sequence (GenBank Accession NM_006769.2, incorporated herein as SEQ ID: 809) and the downstream primer hybridizing to the poly-A tail. In each of these plasmids, the target site was placed downstream of the luciferase coding sequence and upstream of the polyadenylation signal in the 3′-UTR of the luciferase reporter vector. The unmodified pGL3-Control luciferase reporter vector was used as a control.
HeLa cells were routinely cultured and passaged as described, and on the day before transfection with expression or reporter plasmids, the HeLa cells were seeded onto 24-well plates 50,000 cells/well. Cells were transfected according to standard published procedures with various combinations of plasmids using 2 μg Lipofectamine™ 2000 Reagent (Invitrogen) per μg of plasmid DNA, or, when transfecting oligomeric compounds, 1.25 μg of Lipofectamine™ 2000 Reagent per 100 nM oligonucleotide or double-stranded RNA. The luciferase signal in each well was normalized to the Renilla luciferase (RL) activity produced from a co-transfected plasmid, pRL-CMV, which was transfected at 0.5 μg per well. Cells were treated at various dosages (4 nM, 20 nM, and 100 nM) with the following oligomeric compound mimics: 1) “ds-mir-143,” 2) “ds-Control,” 3) “pCR3-pri-mir-143,” or 4) “pri-mir-control,” as described supra. In accordance with methods described in Example 12, supra, a luciferase assay was performed 48-hours after transfection. Briefly, cells were lysed in passive lysis buffer (PLB; Promega), and 20 ul of the lysate was then assayed for RL activity using a Dual Luciferase Assay kit (Promega) according to the manufacturer's protocol. The results below are an average of three trials and are presented as percent pGL3-Control luciferase expression normalized to pRL-CMV expression (RL).
An expression system based on the pGL3-Control (Promega Corp., Madison Wis.) reporter vector and comprising predicted miRNA binding sites was used in transient transfections of HeLa cells with plasmids expressing oligomeric compounds mimicking miRNAs, pre-miRNAs or pri-miRNAs in order to assess the ability of these miRNA mimics to bind and regulate the expression of the luciferase reporter. The effect of increasing the copy number of the miRNA-binding site in the target was also tested by including multiple binding sites in artificial reporter constructs. It is understood that the presence of multiple miRNA-binding sites in a target can include binding sites for different miRNAs.
HeLa cells were routinely cultured and passaged as described. In some embodiments, HeLa cells were transfected with 0.05 μg of the relevant pGL3-sensor plasmid and 0.01 μg pRL-CMV plasmid. Additionally, in some embodiments, cells were treated at various dosages (11 nM, 33 nM, and 100 nM) with the following oligomeric compound mimics: 1) ds-mir-143, or 2) ds-Control as described. In accordance with methods described in Example 12, a luciferase assay was performed 24-hours after transfection. The results, shown in Tables 40 and 41, are an average of three trials. […]

A further series concerns T47D cells. Briefly: Caspase-3 activity assay (apoptosis) in T47D cells. Conditions: T47D cells, 200 nM, 48 hours, relative to untreated control.

In the oligonucleotide strings, read from the 5' end, every base follows the letter of its sugar. An asterisk marks phosphorothioate; unmarked linkages are phosphodiester. Other units and linkages are bracketed, terminal groups are in braces. A string of capitals states the bases alone. e = 2'-O-(2-methoxyethyl) (MOE); [5mC] = 5-methylcytosine; d = 2'-deoxy (DNA)

Turning to “327924 (antisense eG*e[5mC]*eA*eA*eG*e[5mC]*e[5mC]*e[5mC]*eA*eG*eA*e[5mC]*e[5mC]*eG*e[5mC]*eA*eA*eA*eA*eA*eG) [compound 327924]”, the Fold change luciferase with mir-23b miRNA (1.3 nM) worked out at 1.15; with mir-23b miRNA (5 nM), 0.68; in the series with mir-23b miRNA (20 nM), 0.92.

Turning to “ds-mir-143: double-stranded RNA of ISIS 342199 hybridized to its perfect complement ISIS 342200 (sense UGAGAUGAAGCACUGUAGCUCA; antisense UGAGCUACAGUGCUUCAUCUCA; RNA, backbone not given here)”, the luciferase expression is reported as 90.7 percent untreated control in series [1] (Table 40, pGL3-Control, 11 nM); 94.2 percent untreated control in series [1] (Table 40, pGL3-Control, 33 nM); 72.5 percent untreated control in series [1] (Table 40, pGL3-Control, 100 nM); 110.2 percent untreated control in series [1] (Table 41, pGL3-Control, 11 nM); 124.3 percent untreated control in series [1] (Table 41, pGL3-Control, 33 nM); 92.3 percent untreated control in series [1] (Table 41, pGL3-Control, 100 nM). Moreover, the “luciferase expression (% lucif. only control)” value in series [1] (4 nM) turned out to be 101.5 % lucif. only control; in series [1] (20 nM), 123.8 % lucif. only control; in series [1] (100 nM), 131.8 % lucif. only control.

Regarding “328403 (antisense eA*eG*eG*e[5mC]*e[5mC]*dT*dA*dT*dT*d[5mC]*d[5mC]*dT*dG*dT*dA*eG*e[5mC]*eA*eA*eA) [compound 328403]”, in the series with T47D cells, the “Fold Increase over UTC (caspase activity)” value is reported as 1.0.

For the origin of these results see patent US8178506B2, “Oligomeric compounds and compositions for use in modulation of small non-coding RNAs” (Regulus Therapeutics Inc., priority 2003, dated 2012).
